The values below come from patent US20110071171A1, “2H- PYRIMIDO [2, 1-B] QUINAZOLIN-2-ONE DERIVATIVES AND THEIR USE AS PLATELET ANTI-AGGREGATIVE AGENTS” (Shire LLC, priority 2008, published 2011).

The test system of data set [1] is TPO-induced megakaryocytopoiesis. Particulars: cited from earlier work.
In data set [2] the target is human phosphodiesterase III (PDE III). As to conditions: cited from earlier work.
Data set [3] deals with erythroid or myelomonocytic differentiation. As to conditions: stimulated by erythropoietin or granulocyte-macrophage colony-stimulating factor; cited from earlier work.
In another data set the test system is platelet count. As to conditions: patients with thrombocythemia secondary to a myeloproliferative disorder; cited from earlier work.
The conditions of data set [4]: cited from earlier work.
The test system of data set [5] is human phosphodiesterase III (PDE III). Nature of the data set: PDE III inhibition. The data set is classed as biochemical. As to conditions: more potent than anagrelide. The text has this:
In early volunteer trials, the most frequently reported adverse effects AEs other than headache were palpitations, postural dizziness and nausea. During patient studies, the most frequently reported drug-related AEs were headache, palpitations, oedema/fluid retention, nausea/vomiting, diarrhea, dizziness and abdominal pain. These effects are all likely to arise from the secondary, cardiovascular pharmacology associated with anagrelide resulting from its inhibitory effects on human phosphodiesterase III (PDE III). […] Inhibition of myocardial PDE III leads to positive inotropy (increasing of the force of contractions of the heart), increased chronotropy (increase in heart rate), and peripheral vasodilatation. Such cardiovascular manifestations of this inhibition are typically seen with the classical positive inotropes, milrinone and enoximone, and exploited in the short-term acute treatment of congestive heart failure. However, in the treatment of a so-called silent disease (i.e., asymptomatic) such as ET, the cardiovascular side-effects of palpitations and tachycardia associated with anagrelide limit its utility and a significant proportion of patients—reportedly between 25 and 50%—fail to tolerate the drug during long term treatment.
The PDE III inhibitory properties of anagrelide are quite distinct from its platelet lowering anti-megakaryocytic effects. […]

Data set [6] in a line: Pharmacokinetics in humans. As to conditions: after anagrelide treatment. The data set is classed as in vivo, human. The text has this: The PDE III inhibitory properties of anagrelide are quite distinct from its platelet lowering anti-megakaryocytic effects. Indeed studies have shown no correlation between potency as a PDE III inhibitor and anti-megakaryocytic effects for anagrelide and its principal pharmacologically active metabolite, 3-hydroxyanagrelide (3-OH anagrelide or 3-HA, formerly known as SPD604 or BCH24426). […] Anagrelide's active metabolite, 3-HA, is present in vivo in amounts greatly exceeding those of the parent drug with typical exposures being 2-3 fold greater. Thus by implication 3-OH anagrelide is likely to be a major contributor to the pharmacological actions of the drug.
The metabolism of anagrelide generally proceeds extremely rapidly, resulting in a less than ideal pharmacokinetic profile of the drug. […] This, combined with the side-effects profile, can lead to poor patient compliance. Furthermore, anagrelide undergoes a large first pass effect (>50%) leading to considerable intersubject variation in achieved exposures and, therefore, potentially variable drug response. Also, exposure to the pharmacologically active metabolite varies dramatically between patients since its formation is dependent on CYP1A, an enzyme whose expression is highly dependent on exposure to inducing agents such as cigarette smoke. […]

Broadly, the IC50 is the point on the concentration scale where inhibition reaches its midpoint. As for `O=C1CN2Cc3c(ccc(Cl)c3Cl)N=C2N1` [Anagrelide, 6,7-dichloro-1,5-dihydroimidazo[2,1-b]-quinazolin-2(3H)-one], the IC50 in data set [1] (in vitro, human megakaryocytopoiesis, read-out: estimated IC50, inhibition of TPO-induced megakaryocytopoiesis) is approximately 26 nM; in data set [2], approximately 29 nM. Further, the “effect on erythroid or myelomonocytic differentiation” value in data set [3] is reported as “does not affect”. Further, the “time to complete response (platelet count ≦600×10^9/L)” value with platelet count was 4 to 12 weeks. The first pass effect in data set [4] (in vivo) is more than 50%.
Consider `Cc1[nH]c(=O)c(C#N)cc1-c1ccncc1` [milrinone], for which the IC50 in data set [2] was 170 to 350 nM.
Broadly, the half-life is the time in which the quantity being followed falls by half. On to `O=C1NC2=Nc3ccc(Cl)c(Cl)c3CN2C1O` (stereo not shown) [3-hydroxyanagrelide], for which the “potency as PDE III inhibitor relative to anagrelide” value in data set [5] is reported as “over 40 fold”. The “in vivo exposure relative to parent drug” value in data set [6] is 2-3 fold. Besides, in data set [1], the “potency in inhibition of megakaryocytopoiesis relative to anagrelide” value was “no more potent than the parent drug”. The half-life in data set [4] (typical) was 2.5 h.
